Assays:
Assay in all cases: relative viability (nuclei count vs DMSO), 5 days (fraction); higher = more cells survive
[1] = compound: CCC1=CN=CN=C1N2CCN(CC2)CC3=NC4=C(N3)C=C(C=C4)C(F)(F)F + CC1(C)CCC(c2ccc(Cl)cc2)=C(CN2CCN(c3ccc(C(=O)NS(=O)(=O)c4ccc(N[C@H](CCN5CCOCC5)CSc5ccccc5)c(S(=O)(=O)C(F)(F)F)c4)cc3)CC2)C1 [Navitoclax] (partner 0.5 µM)
Method in brief: (§1)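 Relative viability was taken as the ratio of nuclei in treated wells to nuclei in vehicle wells. Lung cancer cell lines in 1536-well plates received compounds by pin tool one day after seeding, either one drug alone or a fixed anchor-drug dose plus five library-drug doses (not always all listed) in √10 steps. Nuclei were counted on 4× images after 5 days of treatment, and values are medians of duplicate plates.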

[2] = compound: CCn1c(-c2nonc2N)nc2cnc(Oc3cccc(NC(=O)c4ccc(OCCN5CCOCC5)cc4)c3)cc21 + COc1cccc2cc(-c3nc([C@H]4CC[C@H](C(=O)O)CC4)n4ncnc(N)c34)[nH]c12 [OSI-027] (partner 0.5 µM)
Method in brief: as §1

Mirin + Trametinib = compound: N=C1NC(=O)/C(=C/c2ccc(O)cc2)S1 [Mirin] + CC(=O)Nc1cccc(-n2c(=O)n(C3CC3)c(=O)c3c(Nc4ccc(I)cc4F)n(C)c(=O)c(C)c32)c1 [Trametinib] (partner 0.02 µM)
Method in brief: as §1

Mirin + Linsitinib = compound: N=C1NC(=O)/C(=C/c2ccc(O)cc2)S1 [Mirin] + C[C@]1(O)C[C@@H](c2nc(-c3ccc4ccc(-c5ccccc5)nc4c3)c3c(N)nccn32)C1 [Linsitinib] (partner 1 µM)
Method in brief: as §1

Q: Which relative viability ([1]; first compound 0.04 µM) does the source give for LK-2 here?
A: 0.773

Q: What about the relative viability ([1]; first compound 0.1265 µM) of the same cell line?
A: 0.801

Q: What about the relative viability ([1]; first compound 0.4 µM) of the same cell line?
A: 0.714

Q: What about the relative viability ([1]; first compound 1.265 µM) of the same cell line?
A: 0.688

Q: What about the relative viability ([1]; first compound 4 µM) of the same cell line?
A: 0.761

Q: What about the relative viability ([2]; first compound 0.04 µM) of the same cell line?
A: 0.201

Q: What about the relative viability ([2]; first compound 0.1265 µM) of the same cell line?
A: 0.225

Q: What about the relative viability ([2]; first compound 0.4 µM) of the same cell line?
A: 0.18

Q: And the relative viability ([2]; first compound 1.265 µM)?
A: 0.196

Q: And the relative viability ([2]; first compound 4 µM)?
A: 0.206

Q: What about the relative viability (Mirin + Trametinib; first compound 0.25 µM) of the same cell line?
A: 0.653

Q: What about the relative viability (Mirin + Trametinib; first compound 0.7906 µM) of the same cell line?
A: 0.577

Q: What about the relative viability (Mirin + Trametinib; first compound 2.5 µM) of the same cell line?
A: 0.609

Q: And the relative viability (Mirin + Trametinib; first compound 7.906 µM)?
A: 0.421

Q: And the relative viability (Mirin + Trametinib; first compound 25 µM)?
A: 0.42

Q: What about the relative viability (Mirin + Linsitinib; first compound 0.25 µM) of the same cell line?
A: 0.321

Q: And the relative viability (Mirin + Linsitinib; first compound 0.7906 µM)?
A: 0.317

Q: And the relative viability (Mirin + Linsitinib; first compound 2.5 µM)?
A: 0.516

Q: And the relative viability (Mirin + Linsitinib; first compound 7.906 µM)?
A: 0.282

Q: What about the relative viability (Mirin + Linsitinib; first compound 25 µM) of the same cell line?
A: 0.174

Q: With NCI-H3122 as the cell line, how does the relative viability ([1]; first compound 0.04 µM) read?
A: 1.02

Q: And the relative viability ([1]; first compound 0.1265 µM)?
A: 0.996

Q: What about the relative viability ([1]; first compound 0.4 µM) of the same cell line?
A: 0.997

Q: And the relative viability ([1]; first compound 1.265 µM)?
A: 0.987

Q: And the relative viability ([1]; first compound 4 µM)?
A: 1.03

Q: And the relative viability ([2]; first compound 0.04 µM)?
A: 1.4

Q: And the relative viability ([2]; first compound 0.1265 µM)?
A: 0.961

Q: What about the relative viability ([2]; first compound 0.4 µM) of the same cell line?
A: 0.729

Q: What about the relative viability ([2]; first compound 1.265 µM) of the same cell line?
A: 0.326

Q: What about the relative viability ([2]; first compound 4 µM) of the same cell line?
A: 0.737

Q: And the relative viability (Mirin + Trametinib; first compound 0.25 µM)?
A: 0.221

Q: And the relative viability (Mirin + Trametinib; first compound 0.7906 µM)?
A: 0.218

Q: What about the relative viability (Mirin + Trametinib; first compound 2.5 µM) of the same cell line?
A: 0.25

Q: And the relative viability (Mirin + Trametinib; first compound 7.906 µM)?
A: 0.176

Q: What about the relative viability (Mirin + Trametinib; first compound 25 µM) of the same cell line?
A: 0.221

Q: And the relative viability (Mirin + Linsitinib; first compound 0.25 µM)?
A: 0.994

Q: And the relative viability (Mirin + Linsitinib; first compound 0.7906 µM)?
A: 1.04

Q: And the relative viability (Mirin + Linsitinib; first compound 2.5 µM)?
A: 1.06

Q: And the relative viability (Mirin + Linsitinib; first compound 7.906 µM)?
A: 1.15

Q: And the relative viability (Mirin + Linsitinib; first compound 25 µM)?
A: 1.05

Q: Which results are given for NCI-H2126?
A: relative viability ([1]; first compound 0.04 µM): 0.818; relative viability ([1]; first compound 0.1265 µM): 0.818; relative viability ([1]; first compound 0.4 µM): 0.839; relative viability ([1]; first compound 1.265 µM): 0.794; relative viability ([1]; first compound 4 µM): 0.867; relative viability ([2]; first compound 0.04 µM): 0.811; relative viability ([2]; first compound 0.1265 µM): 0.754; relative viability ([2]; first compound 4 µM): 0.899; relative viability (Mirin + Trametinib; first compound 0.25 µM): 0.604; relative viability (Mirin + Trametinib; first compound 0.7906 µM): 0.568; relative viability (Mirin + Trametinib; first compound 2.5 µM): 0.552; relative viability (Mirin + Trametinib; first compound 7.906 µM): 0.56; relative viability (Mirin + Trametinib; first compound 25 µM): 0.501; relative viability (Mirin + Linsitinib; first compound 0.25 µM): 0.713; relative viability (Mirin + Linsitinib; first compound 0.7906 µM): 0.707; relative viability (Mirin + Linsitinib; first compound 2.5 µM): 0.756; relative viability (Mirin + Linsitinib; first compound 7.906 µM): 0.639; relative viability (Mirin + Linsitinib; first compound 25 µM): 0.698

Q: How did the relative viability ([1]; first compound 0.04 µM) turn out when NCI-H520 was run?
A: 1.16

Q: And the relative viability ([1]; first compound 0.1265 µM)?
A: 1.01

Q: And the relative viability ([1]; first compound 0.4 µM)?
A: 0.969

Q: What about the relative viability ([1]; first compound 1.265 µM) of the same cell line?
A: 0.96

Q: What about the relative viability ([1]; first compound 4 µM) of the same cell line?
A: 1.03

Q: What about the relative viability ([2]; first compound 0.04 µM) of the same cell line?
A: 0.354

Q: And the relative viability ([2]; first compound 0.1265 µM)?
A: 0.36

Q: And the relative viability ([2]; first compound 0.4 µM)?
A: 0.279

Q: What about the relative viability ([2]; first compound 1.265 µM) of the same cell line?
A: 0.332

Q: And the relative viability ([2]; first compound 4 µM)?
A: 0.224

Q: And the relative viability (Mirin + Trametinib; first compound 0.25 µM)?
A: 0.542

Q: And the relative viability (Mirin + Trametinib; first compound 0.7906 µM)?
A: 0.571

Q: And the relative viability (Mirin + Trametinib; first compound 2.5 µM)?
A: 0.659

Q: And the relative viability (Mirin + Trametinib; first compound 7.906 µM)?
A: 0.603

Q: And the relative viability (Mirin + Trametinib; first compound 25 µM)?
A: 0.477

Q: What about the relative viability (Mirin + Linsitinib; first compound 0.25 µM) of the same cell line?
A: 0.969

Q: And the relative viability (Mirin + Linsitinib; first compound 0.7906 µM)?
A: 0.921

Q: What about the relative viability (Mirin + Linsitinib; first compound 2.5 µM) of the same cell line?
A: 0.946

Q: What about the relative viability (Mirin + Linsitinib; first compound 7.906 µM) of the same cell line?
A: 0.803

Q: And the relative viability (Mirin + Linsitinib; first compound 25 µM)?
A: 0.638

Q: With LOU-NH91 as the cell line, how does the relative viability ([1]; first compound 0.04 µM) read?
A: 0.626

Q: What about the relative viability ([1]; first compound 0.1265 µM) of the same cell line?
A: 0.692

Q: What about the relative viability ([1]; first compound 0.4 µM) of the same cell line?
A: 0.708

Q: What about the relative viability ([1]; first compound 1.265 µM) of the same cell line?
A: 0.583

Q: And the relative viability ([1]; first compound 4 µM)?
A: 0.752

Q: What about the relative viability ([2]; first compound 0.04 µM) of the same cell line?
A: 0.741

Q: What about the relative viability ([2]; first compound 0.1265 µM) of the same cell line?
A: 0.561

Q: What about the relative viability ([2]; first compound 0.4 µM) of the same cell line?
A: 0.44

Q: What about the relative viability ([2]; first compound 1.265 µM) of the same cell line?
A: 0.426

Q: What about the relative viability ([2]; first compound 4 µM) of the same cell line?
A: 0.471

Q: And the relative viability (Mirin + Trametinib; first compound 0.25 µM)?
A: 0.789

Q: And the relative viability (Mirin + Trametinib; first compound 0.7906 µM)?
A: 0.809

Q: What about the relative viability (Mirin + Trametinib; first compound 2.5 µM) of the same cell line?
A: 0.795

Q: And the relative viability (Mirin + Trametinib; first compound 7.906 µM)?
A: 0.823

Q: And the relative viability (Mirin + Trametinib; first compound 25 µM)?
A: 1.01

Q: What about the relative viability (Mirin + Linsitinib; first compound 0.25 µM) of the same cell line?
A: 0.956

Q: And the relative viability (Mirin + Linsitinib; first compound 2.5 µM)?
A: 1.01

Q: And the relative viability (Mirin + Linsitinib; first compound 7.906 µM)?
A: 0.936

Q: And the relative viability (Mirin + Linsitinib; first compound 25 µM)?
A: 1.04

Q: Which relative viability ([1]; first compound 0.04 µM) does the source give for NCI-H1651 here?
A: 1.06

Q: What about the relative viability ([1]; first compound 0.1265 µM) of the same cell line?
A: 0.875

Q: And the relative viability ([1]; first compound 0.4 µM)?
A: 1.04

Q: And the relative viability ([1]; first compound 1.265 µM)?
A: 0.941

Q: And the relative viability ([1]; first compound 4 µM)?
A: 1.01

Q: What about the relative viability ([2]; first compound 0.04 µM) of the same cell line?
A: 0.745

Q: And the relative viability ([2]; first compound 0.1265 µM)?
A: 0.684

Q: What about the relative viability ([2]; first compound 0.4 µM) of the same cell line?
A: 0.596

Q: What about the relative viability ([2]; first compound 1.265 µM) of the same cell line?
A: 0.57

Q: What about the relative viability ([2]; first compound 4 µM) of the same cell line?
A: 0.404

Q: And the relative viability (Mirin + Trametinib; first compound 0.25 µM)?
A: 0.809

Q: And the relative viability (Mirin + Trametinib; first compound 0.7906 µM)?
A: 0.875

Q: And the relative viability (Mirin + Trametinib; first compound 2.5 µM)?
A: 0.886

Q: And the relative viability (Mirin + Trametinib; first compound 7.906 µM)?
A: 0.767

Q: And the relative viability (Mirin + Trametinib; first compound 25 µM)?
A: 0.855

Q: And the relative viability (Mirin + Linsitinib; first compound 0.25 µM)?
A: 1.06

Q: And the relative viability (Mirin + Linsitinib; first compound 0.7906 µM)?
A: 1.01

Q: And the relative viability (Mirin + Linsitinib; first compound 2.5 µM)?
A: 0.982

Q: What about the relative viability (Mirin + Linsitinib; first compound 7.906 µM) of the same cell line?
A: 0.741

Q: What about the relative viability (Mirin + Linsitinib; first compound 25 µM) of the same cell line?
A: 0.856

Q: What does the source list for NCI-H460?
A: relative viability ([1]; first compound 0.04 µM): 1.25; relative viability ([1]; first compound 0.1265 µM): 1.01; relative viability ([1]; first compound 0.4 µM): 1.01; relative viability ([1]; first compound 1.265 µM): 1.09; relative viability ([1]; first compound 4 µM): 1.11; relative viability ([2]; first compound 0.04 µM): 0.741; relative viability ([2]; first compound 0.1265 µM): 0.561; relative viability ([2]; first compound 0.4 µM): 0.364; relative viability ([2]; first compound 1.265 µM): 0.163; relative viability ([2]; first compound 4 µM): 0.0569; relative viability (Mirin + Trametinib; first compound 0.25 µM): 0.142; relative viability (Mirin + Trametinib; first compound 0.7906 µM): 0.172; relative viability (Mirin + Trametinib; first compound 2.5 µM): 0.206; relative viability (Mirin + Trametinib; first compound 7.906 µM): 0.102; relative viability (Mirin + Trametinib; first compound 25 µM): 0.171; relative viability (Mirin + Linsitinib; first compound 0.25 µM): 0.809; relative viability (Mirin + Linsitinib; first compound 0.7906 µM): 0.759; relative viability (Mirin + Linsitinib; first compound 2.5 µM): 0.764; relative viability (Mirin + Linsitinib; first compound 7.906 µM): 0.649; relative viability (Mirin + Linsitinib; first compound 25 µM): 0.474

From the supplement of paper PMC10307832
